Reference: patent US20240132431A1, “METHOD FOR ALKYLATING ACIDIC FUNCTIONAL GROUP” (Chugai Seiyaku Kabushiki Kaisha, priority 2021, published 2024)
One block for each compound: values may come before it.

Target: T1, Bcl-2 protein (Recombinant Human Bcl-2 Protein) (Homo sapiens, UniProt P10415)
T1 construct: purchased Novus NBP2-34889
Test: Binding evaluation of mixture library compounds to Bcl-2 using AS-MS (affinity selection mass spectrometry)
Settings: for ASMS ratio (%) n = 1 / ASMS ratio (%) n = 2: ASMS Ratio(%)=(A−C)/B×100; for ASMS ratio (%) n = 1: replicate n = 1; for ASMS ratio (%) n = 2: replicate n = 2
Procedure, shortened: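 Pooled library of ~1200 compounds ([…] each, final) incubated with recombinant human Bcl-2 (20 μM final) in Tris-HCl pH 7.4, NaCl, Tween-20, DTT buffer, dark, 23° C., 1 h. Bound fraction recovered by SEC spin column, organic extraction, reversed-phase LC/MS. ASMS Ratio (%) = (A−C)/B×100 versus protein-free standard and SEC blank.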

[1] = AS-MS, mixture of 1200 compounds, Bcl-2
[2] = AS-MS on the mixture of 1200 library compounds

T1 sequence (P10415 whole entry): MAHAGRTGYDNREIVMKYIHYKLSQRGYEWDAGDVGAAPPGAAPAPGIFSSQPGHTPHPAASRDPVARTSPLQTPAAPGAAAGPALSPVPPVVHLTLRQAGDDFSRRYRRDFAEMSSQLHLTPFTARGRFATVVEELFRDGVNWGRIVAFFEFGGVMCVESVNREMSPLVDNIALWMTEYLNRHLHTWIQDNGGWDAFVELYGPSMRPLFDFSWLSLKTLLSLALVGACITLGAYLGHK

- ASMS ratio (%) (n = 1): 0.0%
- ASMS ratio (%) (n = 2): 0.0%
Compound: CCOc1cncc(-c2ccc(C(=O)N3CCN(c4ccc(C(=O)NS(=O)(=O)CCC(F)(F)F)nn4)CC3)c3ccccc23)c1 [B2N014-01, 6-[4-[4-(5-Ethoxypyridin-3-yl)naphthalene-1-carbonyl]piperazin-1-yl]-N-(3,3,3-trifluoropropylsulfonyl)pyridazine-3-carboxamide]

- ASMS ratio (%) n = 1 (AS-MS, mixture library, Bcl-2): −2.6%
- ASMS ratio (%) n = 2 (AS-MS, mixture library, Bcl-2): −0.2%
Compound: CCOc1cncc(-c2ccc(C(=O)N3CCN(c4ccc(C(=O)NS(C)(=O)=O)cc4)CC3)cc2C)c1 [B2I026-01, 4-[4-[4-(5-Ethoxypyridin-3-yl)-3-methylbenzoyl]piperazin-1-yl]-N-methylsulfonylbenzamide]

- ASMS ratio (%) (n = 1): 0.0%
- ASMS ratio (%) (n = 2): 0.0%
Compound: CCOc1cncc(-c2cc(CN3CCN(c4ccc(C(=O)NS(C)(=O)=O)nn4)CC3)cc(C(F)(F)F)c2)c1 [B2I088-01, 6-[4-[[3-(5-Ethoxypyridin-3-yl)-5-(trifluoromethyl)phenyl]methyl]piperazin-1-yl]-N-methylsulfonylpyridazine-3-carboxamide]

- ASMS ratio (%) (n = 1): −0.7%
- ASMS ratio (%) (n = 2): −0.9%
Compound: CCOc1cncc(-c2ccc(C(=O)N3CCN(c4ccc(C(=O)NS(=O)(=O)CCC(F)(F)F)cc4)CC3)cc2F)c1 [B2N028-01, 4-[4-[4-(5-Ethoxypyridin-3-yl)-3-fluorobenzoyl]piperazin-1-yl]-N-(3,3,3-trifluoropropylsulfonyl)benzamide]

- ASMS ratio (%) (n = 1): 0.0%
- ASMS ratio (%) (n = 2): −0.7%
Compound: CCOc1cncc(-c2ccc(C(C)N3CCN(c4ccc(C(=O)NS(=O)(=O)CCC(F)(F)F)cc4)CC3)cc2)c1 (stereo not shown) [B2N098-01, 4-[4-[1-[4-(5-Ethoxypyridin-3-yl)phenyl]ethyl]piperazin-1-yl]-N-(3,3,3-trifluoropropylsulfonyl)benzamide]

- ASMS ratio (%) (n = 1): 0.8%
- ASMS ratio (%) (n = 2): 1.3%
Compound: CCOc1cncc(-c2ccccc2CN2CCN(c3ccc(C(=O)NS(C)(=O)=O)nn3)CC2)c1 [B2I072-01, 6-[4-[[2-(5-Ethoxypyridin-3-yl)phenyl]methyl]piperazin-1-yl]-N-methylsulfonylpyridazine-3-carboxamide]

The next lines start with the compound.

Compound: 6-[4-[[2-[2-(5-Ethoxypyridin-3-yl)ethynyl]phenyl]methyl]piperazin-1-yl]-N-propylpyridazine-3-carboxamide [B1M055-01]
- ASMS ratio (%) n = 1 [1]: 3.9%
- ASMS ratio (%) n = 2 [1]: −1.2%

Compound: CCOc1cncc(-c2csc(C(=O)N3CCN(c4ccc(C(=O)Nc5ccc(OC)cc5)cc4)CC3)c2)c1 [B1O024-01, 4-[4-[4-(5-Ethoxypyridin-3-yl)thiophene-2-carbonyl]piperazin-1-yl]-N-(4-methoxyphenyl)benzamide]
- ASMS ratio (%) n = 1 [2]: 3.6%
- ASMS ratio (%) n = 2 [2]: 2.3%

Compound: CCOc1cncc(C#Cc2ccccc2CN2CCN(c3ccc(C(=O)NCC(F)(F)F)nn3)CC2)c1 [B1K096-01, 6-[4-[[2-[2-(5-Ethoxypyridin-3-yl)ethynyl]phenyl]methyl]piperazin-1-yl]-N-(2,2,2-trifluoroethyl)pyridazine-3-carboxamide]
- ASMS ratio (%) n = 1 [1]: 0.0%
- ASMS ratio (%) n = 2 [1]: 0.0%

Compound: CCOc1cccc(-c2ccc(C(=O)N3CCN(c4ccc(C(=O)NS(=O)(=O)CC56CC7CC(CC(C7)C5)C6)nn4)CC3)cc2F)c1 [B2A005-01, N-(1-Adamantylmethylsulfonyl)-6-[4-[4-(3-ethoxyphenyl)-3-fluorobenzoyl]piperazin-1-yl]pyridazine-3-carboxamide]
- ASMS ratio (%) n = 1 (AS-MS, mixture library, Bcl-2): 4.7%
- ASMS ratio (%) n = 2 (AS-MS, mixture library, Bcl-2): 12.4%

Compound: CCOc1cncc(-c2ccc(C(=O)N3CCN(c4ccc(C(=O)NS(C)(=O)=O)nn4)CC3)cc2C)c1 [B2I004-01, 6-[4-[4-(5-Ethoxypyridin-3-yl)-3-methylbenzoyl]piperazin-1-yl]-N-methylsulfonylpyridazine-3-carboxamide]
- ASMS ratio (%) n = 1 (AS-MS, mixture library, Bcl-2): 0.9%
- ASMS ratio (%) n = 2 (AS-MS, mixture library, Bcl-2): −0.3%
